Measured values from patent publication US4450269A, “Mono-5-substituted-3-chloro-4H-1,2,6-thiadiazin-4-one antifungal agents” (FMC Corporation, priority 1980, dated 1984).

Key:
Venturia inaequalis = assay: Spore germination test; type: cell-based; details: VI, 48 hours
In short: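 Compound from acetone stock mixed into water agar at 40, 10, 2.5 and 1 ppm; plated quadrants inoculated with spore suspension in sterile water. Incubation 48 hours at 24° C, then percentage of germinated spores counted and converted to a germination rating.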

Pyricularia oryzae = assay: microbe, parasite or virus in culture; type: cell-based; details: Pyricularia oryzae, 72 h; for inhibition at 5 ppm: read-out: Percent Fungus Growth Inhibition, PO, 5 ppm, 72 hours; for inhibition at 10 ppm: read-out: Percent Fungus Growth Inhibition, PO, 10 ppm, 72 hours; for inhibition at 20 ppm: read-out: Percent Fungus Growth Inhibition, PO, 20 ppm, 72 hours; for inhibition at 40 ppm: read-out: Percent Fungus Growth Inhibition, PO, 40 ppm, 72 hours

Row | SMILES | Spore Germination Rating (Venturia inaequalis; 1.0 ppm) | Spore Germination Rating (Venturia inaequalis; 2.5 ppm) | Spore Germination Rating (Venturia inaequalis; 10 ppm) | Spore Germination Rating (Venturia inaequalis; 40 ppm) | inhibition at 5 ppm (Pyricularia oryzae) | inhibition at 10 ppm (Pyricularia oryzae) | inhibition at 20 ppm (Pyricularia oryzae) | inhibition at 40 ppm (Pyricularia oryzae)
1 | O=c1c(Cl)nsnc1Oc1ccccc1Cl [Compound 14, 3-chloro-5-(2-chlorophenoxy)-4H--1,2,6-thiadiazin-4-one] | 0 (0-10) | 0 (0-10) | 0 (0-10) | 0 (0-10) | 23% | 26% | 55% | 100%
2 | O=c1c(Cl)nsnc1Oc1ccccc1 [Compound 2, 3-chloro-5-phenoxy-4H--1,2,6-thiadiazin-4-one] | 4 (80-100) | 2 (40-60) | 0 (0-10) | 0 (0-10) | 22% | 26% | 56% | 100%
3 | Cc1cccc(C)c1Oc1nsnc(Cl)c1=O [Compound 24, 3-chloro-5-(2,6-dimethylphenoxy)-4H--1,2,6-thiadiazin-4-one] | 2 (40-60) | 0 (0-10) | 0 (0-10) | 0 (0-10) | 21% | 42% | 63% | 100%
4 | O=c1c(Cl)nsnc1Oc1ccc(Br)cc1 [Compound 15, 3-chloro-5-(4-bromophenoxy)-4H--1,2,6-thiadiazin-4-one] | 0 (0-10) | 0 (0-10) | 0 (0-10) | 0 (0-10) | 12% | 19% | 50% | 58%
5 | O=c1c(Cl)nsnc1Oc1ccccc1Br [Compound 34, 3-chloro-5-(2-bromophenoxy)-4H-1,2,6,-thiadiazin-4-one] | 0 (0-10) | 0 (0-10) | 0 (0-10) | 0 (0-10) | 38% | 65% | 100% | 100%
6 | Cc1cc(C)cc(Oc2nsnc(Cl)c2=O)c1 [Compound 25, 3-chloro-5-(3,5-dimethylphenoxy)-4H--1,2,6-thiadiazin-4-one] | 4 (80-100) | 0 (0-10) | 2 (40-60) | 0 (0-10) | 33% | 58% | 54% | 63%
7 | CCOC(=O)c1ccc(Oc2nsnc(Cl)c2=O)cc1 [Compound 7, 3-chloro-5-(4-ethoxycarbonylphenoxy)-4H--1,2,6-thiadiazin-4-one] | 0 (0-10) | 0 (0-10) | 0 (0-10) | 0 (0-10) | 19% | 65% | 77% | 81%
8 | Cc1cccc(Oc2nsnc(Cl)c2=O)c1 [Compound 21, 3-chloro-5-(3-methylphenoxy)-4H--1,2,6-thiadiazin-4-one] | 4 (80-100) | 3 (60-80) | 0 (0-10) | 0 (0-10) | 33% | 33% | 50% | 58%
9 | O=c1c(Cl)nsnc1Oc1cc(Cl)cc(Cl)c1 [Compound 20, 3-chloro-5-(3,5-dichlorophenoxy)-4H--1,2,6-thiadiazin-4-one] | 0 (0-10) | 0 (0-10) | 0 (0-10) | 0 (0-10) | 48% | 74% | 68% | 74%
10 | O=c1c(Cl)nsnc1Oc1cccc(C(F)(F)F)c1 [Compound 44, 3-chloro-5-[(3-trifluoromethyl)phenoxy]-4H--1,2,6-thiadiazin-4-one] | 1 (10-40) | 1 (10-40) | 0 (0-10) | 0 (0-10) | 54% | 71% | 93% | 100%
